The source of these data is patent US20140249135A1, “PIM KINASE INHIBITORS AND METHODS OF THEIR USE” (NOVARTIS AG, priority 2007, published 2014).

Like-named read-outs stand apart in the source and are kept apart here.

What all share (type): biochemical
One experiment deals with Pim3 kinase (Homo sapiens, UniProt Q86V86). In words: Pim3 ATP depletion assay.
For another experiment, the target named is Pim1 kinase (Homo sapiens, UniProt P11309). In words: Pim1 ATP depletion assay.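 Note: Luciferase-luciferin luminescence readout of residual ATP after PIM1 transfers phosphate to a peptide substrate, 40 µM ATP added, reaction run to roughly half ATP consumption.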 The following applies: Pim1 ATP depletion assay.
The target of the next experiment is Pim2 kinase (Homo sapiens, UniProt Q9P1W9). Description: Pim2 ATP depletion assay.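 Note: Luciferase-based luminescent readout of ATP remaining after PIM2 phosphorylates a BAD peptide, final 5 nM enzyme, 4 µM ATP, 10 µM peptide, 2.5% DMSO, run to roughly half ATP consumption.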
Pim2 kinase, sequence (Q9P1W9 whole entry): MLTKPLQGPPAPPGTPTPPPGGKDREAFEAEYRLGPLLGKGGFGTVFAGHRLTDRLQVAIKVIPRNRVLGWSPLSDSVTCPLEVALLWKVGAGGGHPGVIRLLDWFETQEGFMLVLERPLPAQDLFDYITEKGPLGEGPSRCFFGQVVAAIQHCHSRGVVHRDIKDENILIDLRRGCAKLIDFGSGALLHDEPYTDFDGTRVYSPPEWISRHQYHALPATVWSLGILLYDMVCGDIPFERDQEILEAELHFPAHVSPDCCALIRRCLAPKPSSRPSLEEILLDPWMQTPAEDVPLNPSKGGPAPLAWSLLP

Pim1 kinase, sequence (P11309 whole entry): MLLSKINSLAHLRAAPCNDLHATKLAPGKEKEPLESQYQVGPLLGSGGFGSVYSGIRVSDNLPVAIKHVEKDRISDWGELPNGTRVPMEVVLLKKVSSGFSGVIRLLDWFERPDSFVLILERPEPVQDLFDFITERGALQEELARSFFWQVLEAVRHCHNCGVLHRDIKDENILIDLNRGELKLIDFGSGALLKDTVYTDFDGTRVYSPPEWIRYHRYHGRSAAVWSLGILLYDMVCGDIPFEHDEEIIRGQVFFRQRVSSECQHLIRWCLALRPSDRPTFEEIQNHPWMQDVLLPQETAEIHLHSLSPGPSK

In general, IC50 refers to the concentration that inhibits the measured activity by half. As for `Nc1cnc(-c2c(F)cccc2F)nc1C(=O)Nc1cnccc1N1CC[C@@H](F)[C@H](N)C1` (stereo in doubt) [Example 256, 5-Amino-2-(2,6-difluoro-phenyl)-pyrimidine-4-carboxylic acid (3-amino-4-fluoro-3,4,5,6-tetrahydro-2H-[1,4′]bipyridinyl-3′-yl)-amide], the IC50 at Pim3 kinase (read-out: IC50 (μM) PIM3), on Pim1 kinase (read-out: IC50 (μM) PIM1) and on Pim2 kinase (read-out: IC50 (μM) PIM2) was < 1 µM throughout.
Regarding `CC(C)NC(=O)c1ccc(F)c(-c2ccc(N)c(C(=O)Nc3cnccc3N3C[C@@H](N)C[C@H](OC(=O)c4ccccc4)C3)n2)c1` (stereo in doubt) [Example 294, Benzoic acid 5-amino-3′-{[3-amino-6-(2-fluoro-5-isopropylcarbamoyl-phenyl)-pyridine-2-carbonyl]-amino}-3,4,5,6-tetrahydro-2H-[1,4′]bi-pyridinyl-3-yl ester], the IC50 at Pim3 kinase (read-out: IC50 (μM) PIM3), at Pim1 kinase (read-out: IC50 (μM) PIM1) and on Pim2 kinase (read-out: IC50 (μM) PIM2) was < 1 µM throughout.
`Nc1ccc(C2CC3CCC2C3)nc1C(=O)Nc1cnccc1N1CCC[C@H](N)C1` (stereo in doubt) [Example 646, 3-Amino-6-bicyclo[2.2.1]hept-2-yl-pyridine-2-carboxylic acid (3-amino-3,4,5,6-tetrahydro-2H-[1,4′]bipyridinyl-3′-yl)-amide]: the IC50 on Pim3 kinase (read-out: PIM3 IC50), on Pim1 kinase (read-out: PIM1 IC50) and on Pim2 kinase (read-out: PIM2 IC50) was < 1 µM each time.
For `Nc1cnc(-c2ccccc2F)nc1C(=O)Nc1cnccc1N1CC[C@@H](O)[C@H](N)C1` (stereo in doubt) [Example 662, 5-Amino-2-(2-fluoro-phenyl)-pyrimidine-4-carboxylic acid (3-amino-4-hydroxy-3,4,5,6-tetrahydro-2H-[1,4′]bi-pyridinyl-3′-yl)-amide], the IC50 at Pim3 kinase (read-out: PIM3 IC50), at Pim1 kinase (read-out: PIM1 IC50) and on Pim2 kinase (read-out: PIM2 IC50) was < 1 µM each time.
Consider `Nc1cnc(-c2c(F)cccc2F)nc1C(=O)Nc1cnccc1N1CC[C@@H](O)[C@H](N)C1` (stereo in doubt) [Example 663, 5-Amino-2-(2,6-difluoro-phenyl)-pyrimidine-4-carboxylic acid (3-amino-4-hydroxy-3,4,5,6-tetrahydro-2H-[1,4′]bipyridinyl-3′-yl)-amide], for which the IC50 at Pim3 kinase (read-out: PIM3 IC50), on Pim1 kinase (read-out: PIM1 IC50) and on Pim2 kinase (read-out: PIM2 IC50) was < 1 µM in each case.
Turning to `CC(C)Oc1ccc(F)c(-c2ccc(N)c(C(=O)Nc3cnccc3N3CC[C@@H](O)[C@H](N)C3)n2)c1F` (stereo in doubt) [Example 665, 3-Amino-6-(2,6-difluoro-3-isopropoxy-phenyl)-pyridine-2-carboxylic acid (3-amino-4-hydroxy-3,4,5,6-tetrahydro-2H-[1,4′]bipyridinyl-3′-yl)-amide], the IC50 at Pim3 kinase (read-out: PIM3 IC50), at Pim1 kinase (read-out: PIM1 IC50) and at Pim2 kinase (read-out: PIM2 IC50) was < 1 µM in each case.
Take `CC(C)Oc1ccc(F)c(-c2ccc(N)c(C(=O)Nc3cnccc3N3CC[C@@H](N)[C@H](O)C3)n2)c1F` (stereo in doubt) [Example 667, 3-Amino-6-(2,6-difluoro-3-isopropoxy-phenyl)-pyridine-2-carboxylic acid (4-amino-3-hydroxy-3,4,5,6-tetrahydro-2H-[1,4′]bipyridinyl-3′-yl)-amide]: the concentration for half-maximal inhibition (IC50) on Pim3 kinase (read-out: PIM3 IC50), on Pim1 kinase (read-out: PIM1 IC50) and at Pim2 kinase (read-out: PIM2 IC50) was < 1 µM in each case.
As for `Nc1cnc(-c2ccccc2)nc1C(=O)Nc1cnccc1N1CC[C@@H](O)[C@H](N)C1` (stereo in doubt) [Example 670, 5-Amino-2-phenyl-pyrimidine-4-carboxylic acid (3-amino-4-hydroxy-3,4,5,6-tetrahydro-2H-[1,4′]bipyridinyl-3′-yl)-amide], the IC50 at Pim3 kinase (read-out: PIM3 IC50), on Pim1 kinase (read-out: PIM1 IC50) and at Pim2 kinase (read-out: PIM2 IC50) was < 1 µM each time.
As to `CC1(O)CCCN(c2ccncc2NC(=O)c2nc(-c3ccccc3F)ccc2N)C1` (stereo not drawn) [Example 162, 3-Amino-6-(2-fluoro-phenyl)-pyridine-2-carboxylic acid (3-hydroxy-3-methyl-3,4,5,6-tetra-hydro-2H-[1,4′]bipyridinyl-3′-yl)-amide], the IC50 on Pim3 kinase (read-out: IC50 (μM) PIM3), on Pim1 kinase (read-out: IC50 (μM) PIM1) and on Pim2 kinase (read-out: IC50 (μM) PIM2) was < 1 µM throughout.
For the molecule `Nc1ccc(-c2c(F)cccc2F)nc1C(=O)Nc1cnccc1N1CCCCCCC1` [Example 167, 3-Amino-6-(2,6-difluoro-phenyl)-pyridine-2-carboxylic acid (4-azocan-1-yl-pyridin-3-yl)-amide], the 50% inhibitory concentration (IC50) on Pim3 kinase (read-out: IC50 (μM) PIM3) was < 1 µM; at Pim1 kinase (read-out: IC50 (μM) PIM1) it was < 1 µM; on Pim2 kinase (read-out: IC50 (μM) PIM2), 1 to 10 µM.
Take `Nc1ccc(-c2c(F)cccc2F)nc1C(=O)Nc1cnccc1N1CCCOCC1` [Example 168, 3-Amino-6-(2,6-difluoro-phenyl)-pyridine-2-carboxylic acid (4-[1,4]oxazepan-4-yl-pyridin-3-yl)-amide]: the IC50 at Pim3 kinase (read-out: IC50 (μM) PIM3), on Pim1 kinase (read-out: IC50 (μM) PIM1) and on Pim2 kinase (read-out: IC50 (μM) PIM2) was < 1 µM throughout.
For `Nc1ccc(-c2c(F)cccc2F)nc1C(=O)Nc1cnccc1N1CCCCCC1` [Example 169, 3-Amino-6-(2,6-difluoro-phenyl)-pyridine-2-carboxylic acid (4-azepan-1-yl-pyridin-3-yl)-amide], the IC50 on Pim3 kinase (read-out: IC50 (μM) PIM3), at Pim1 kinase (read-out: IC50 (μM) PIM1) and on Pim2 kinase (read-out: IC50 (μM) PIM2) was < 1 µM throughout.
As for `NC(=O)c1ccc(N2CCCCC2)c(NC(=O)c2nccnc2N)c1` [Example 170, 3-amino-N-(5-carbamoyl-2-(piperidin-1-yl)phenyl)pyrazine-2-carboxamide], the values for the IC50 at Pim3 kinase (read-out: IC50 (μM) PIM3), at Pim1 kinase (read-out: IC50 (μM) PIM1) and on Pim2 kinase (read-out: IC50 (μM) PIM2) were < 1 µM, < 1 µM and 1 to 10 µM, respectively.
For the molecule `NC1CCCN(c2ccncc2NC(=O)c2cnccn2)C1` (stereo not drawn) [Example 197, N-[4-(3-aminopiperidin-1-yl)-pyridin-3-yl]pyrazine-2-carboxamide], the half-inhibitory concentration (IC50) on Pim3 kinase (read-out: IC50 (μM) PIM3), on Pim1 kinase (read-out: IC50 (μM) PIM1) and on Pim2 kinase (read-out: IC50 (μM) PIM2) was > 25 µM throughout.
Consider `Cc1cnc(C(=O)Nc2cnccc2N2CCCC(N)C2)cn1` (stereo not drawn) [Example 198, N-[4-(3-aminopiperidin-1-yl)pyridin-3-yl]-5-methyl-pyrazine-2-carboxamide], for which the IC50 on Pim3 kinase (read-out: IC50 (μM) PIM3), at Pim1 kinase (read-out: IC50 (μM) PIM1) and at Pim2 kinase (read-out: IC50 (μM) PIM2) was > 25 µM in each case.
For `Nc1ncccc1C(=O)Nc1cnccc1N1CCCC(N)C1` (stereo not drawn) [Example 200, 2-amino-N-[4-(3-aminopiperidin-1-yl)pyridin-3-yl]nicotinamide], the results for the half-inhibitory concentration (IC50) at Pim3 kinase (read-out: IC50 (μM) PIM3), at Pim1 kinase (read-out: IC50 (μM) PIM1) and on Pim2 kinase (read-out: IC50 (μM) PIM2) were > 25 µM, 10 to 25 µM and > 25 µM, respectively.
On to `CC(=O)c1ccc(N2CCC(N)CC2)c(NC(=O)c2nccnc2N)c1` [Example 220, N-[5-acetyl-2-(4-aminopiperidin-1-yl)phenyl]-3-aminopyrazine-2-carboxamide], for which the IC50 at Pim3 kinase (read-out: IC50 (μM) PIM3) was < 1 µM; at Pim1 kinase (read-out: IC50 (μM) PIM1), < 1 µM; at Pim2 kinase (read-out: IC50 (μM) PIM2) it was 10 to 25 µM.
Regarding `CC(=O)c1ccc(N2CCCC(N)C2)c(NC(=O)c2nccnc2N)c1` (stereo not drawn) [Example 221, N-[5-acetyl-2-(3-aminopiperidin-1-yl)phenyl]-3-aminopyrazine-2-carboxamide], the half-maximal inhibitory concentration (IC50) on Pim3 kinase (read-out: IC50 (μM) PIM3) was < 1 µM; on Pim1 kinase (read-out: IC50 (μM) PIM1), < 1 µM; on Pim2 kinase (read-out: IC50 (μM) PIM2), 1 to 10 µM.
In the case of `CS(=O)(=O)c1ccc(N2CCC(N)CC2)c(NC(=O)c2nccnc2N)c1` [Example 234, 3-amino-N-[2-(4-aminopiperidin-1-yl)-5-(methylsulfonyl)phenyl]-pyrazine-2-carboxamide], the IC50 on Pim3 kinase (read-out: IC50 (μM) PIM3) is 10 to 25 µM; at Pim1 kinase (read-out: IC50 (μM) PIM1), 1 to 10 µM; on Pim2 kinase (read-out: IC50 (μM) PIM2), > 25 µM.
As to `Nc1nccnc1C(=O)Nc1cc(C(=O)C2CC2)ccc1N1CCNCC1` [Example 245, 3-amino-N-[5-(cyclopropyl-carbonyl)-2-piperazin-1-yl-phenyl]pyrazine-2-carboxamide], the half-maximal inhibitory concentration (IC50) on Pim3 kinase (read-out: IC50 (μM) PIM3) is 10 to 25 µM; on Pim1 kinase (read-out: IC50 (μM) PIM1) it was > 25 µM; at Pim2 kinase (read-out: IC50 (μM) PIM2), > 25 µM.
`Nc1cnc(-c2c(F)cccc2F)nc1C(=O)Nc1cnccc1N1C[C@H](N)C[C@H](N)C1` [Example 246, 5-Amino-2-(2,6-difluoro-phenyl)-pyrimidine-4-carboxylic acid (3,5-diamino-3,4,5,6-tetra-hydro-2H-[1,4′]bipyridinyl-3′-yl)-amide]: the concentration for half-maximal inhibition (IC50) on Pim3 kinase (read-out: IC50 (μM) PIM3), at Pim1 kinase (read-out: IC50 (μM) PIM1) and at Pim2 kinase (read-out: IC50 (μM) PIM2) was < 1 µM throughout.
For the molecule `Nc1cnc(-c2ccccc2F)nc1C(=O)Nc1cnccc1N1C[C@H](N)C[C@H](N)C1` [Example 247, 5-Amino-2-(2-fluoro-phenyl)-pyrimidine-4-carboxylic acid (3,5-diamino-3,4,5,6-tetrahydro-2H-[1,4′]bipyridinyl-3′-yl)-amide], the 50% inhibitory concentration (IC50) at Pim3 kinase (read-out: IC50 (μM) PIM3), at Pim1 kinase (read-out: IC50 (μM) PIM1) and at Pim2 kinase (read-out: IC50 (μM) PIM2) was < 1 µM in each case.
In the case of `Nc1ccc(-c2ccccc2F)nc1C(=O)Nc1cnccc1N1C[C@H](N)C[C@H](N)C1` [Example 248, 3-Amino-6-(2-fluoro-phenyl)-pyridine-2-carboxylic acid (3,5-diamino-3,4,5,6-tetrahydro-2H-[1,4′]bipyridinyl-3′-yl)-amide], the concentration for half-maximal inhibition (IC50) at Pim3 kinase (read-out: IC50 (μM) PIM3), at Pim1 kinase (read-out: IC50 (μM) PIM1) and at Pim2 kinase (read-out: IC50 (μM) PIM2) was < 1 µM in each case.
For `N[C@H]1CCCN(c2ccncc2NC(=O)c2ccnc(-c3ccccc3F)n2)C1` [Example 250, N-{4-[(3S)-3-aminopiperidin-1-yl]pyridin-3-yl}-2-(2-fluoro-phenyl)pyrimidine-4-carbox-amide], the IC50 on Pim3 kinase (read-out: IC50 (μM) PIM3), on Pim1 kinase (read-out: IC50 (μM) PIM1) and at Pim2 kinase (read-out: IC50 (μM) PIM2) was < 1 µM in each case.
With `CC1CC(N)CN(c2ccncc2NC(=O)c2ccc(F)c(-c3ccccc3F)n2)C1` (stereo not drawn) [Example 287, 5-Fluoro-6-(2-fluoro-phenyl)-pyridine-2-carboxylic acid (3-amino-5-methyl-3,4,5,6-tetra-hydro-2H-[1,4′]bipyridinyl-3′-yl)-amide], the half-inhibitory concentration (IC50) at Pim3 kinase (read-out: IC50 (μM) PIM3) was < 1 µM.
Take `Nc1ccc(C2CCCCC2)nc1C(=O)Nc1cnccc1N1CCC[C@H](N)C1` [Example 636, 3-Amino-6-cyclohexyl-pyridine-2-carboxylic acid (3-amino-3,4,5,6-tetrahydro-2H-[1,4′]bipyridinyl-3′-yl)-amide]: the IC50 at Pim3 kinase (read-out: PIM3 IC50) and on Pim1 kinase (read-out: PIM1 IC50) was < 1 µM each time.
